The record followed here is patent US8088815B2, “Spiroindolinone pyrrolidines” (Hoffman-La Roche Inc., priority 2009, dated 2012).

The test addresses interaction between p53 and MDM2 proteins (Homo sapiens, UniProt Q00987). In words: HTRF assay of inhibition of the p53-MDM2 interaction (GST-MDM2 / biotinylated p53 peptide). Format: binding. Conditions: recombinant GST-tagged MDM2 and biotinylated p53 peptide, bsa:0.02%. The procedure: The ability of the compounds to inhibit the interaction between p53 and MDM2 proteins was measured by an HTRF (homogeneous time-resolved fluorescence) assay in which recombinant GST-tagged MDM2 binds to a peptide that resembles the MDM2-interacting region of p53. Binding of GST-MDM2 protein and p53-peptide (biotinylated on its N-terminal end) is registered by the FRET (fluorescence resonance energy transfer) between Europium (Eu)-labeled anti-GST antibody and streptavidin-conjugated Allophycocyanin (APC).
Add 10 uL diluted compounds (1:5 dilution in reaction buffer) to each well, mix by shaking. Add 20 uL biotinylated p53 peptide (180 nM working solution) in reaction buffer to each well and mix on shaker. Incubate at 37° C. for 1 h. Add 20 uL streptavidin-APC and Eu-anti-GST antibody mixture (6 nM Eu-anti-GST and 60 nM streptavidin-APC working solution) in TBS buffer with 0.2% BSA, shake at room temperature for 30 minutes and read using a TRF-capable plate reader at
665 and 615 nm (Victor 5, Perkin ElmerWallac). If not specified, the reagents were purchased from Sigma Chemical Co.

Sequence of interaction between p53 and MDM2 proteins (Q00987 whole entry): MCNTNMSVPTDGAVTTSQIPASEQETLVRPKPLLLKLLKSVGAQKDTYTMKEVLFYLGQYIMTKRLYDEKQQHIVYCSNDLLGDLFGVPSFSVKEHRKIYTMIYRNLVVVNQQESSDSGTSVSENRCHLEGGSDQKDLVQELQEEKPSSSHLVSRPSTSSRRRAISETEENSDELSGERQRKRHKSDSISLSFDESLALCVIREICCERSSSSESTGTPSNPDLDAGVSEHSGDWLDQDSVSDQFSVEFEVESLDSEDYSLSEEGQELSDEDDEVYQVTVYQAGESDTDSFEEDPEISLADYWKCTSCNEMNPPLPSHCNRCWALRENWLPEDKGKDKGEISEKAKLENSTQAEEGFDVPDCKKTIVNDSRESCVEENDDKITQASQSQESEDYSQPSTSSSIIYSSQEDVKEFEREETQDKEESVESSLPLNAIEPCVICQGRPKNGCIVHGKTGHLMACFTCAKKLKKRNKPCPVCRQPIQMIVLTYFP

Consider `CC(C)(C)C[C@@H]1N[C@@H](C(=O)Nc2ccc(OCCO)cc2)[C@H](c2cccc(Cl)c2F)[C@]12C(=O)Nc1cc(Cl)ccc12` [Example 20, chiral (2′S,3′R,4′S,5′R)-6-chloro-4′-(3-chloro-2-fluoro-phenyl)-2′-(2,2-dimethyl-propyl)-2-oxo-1,2-dihydro-spiro[indole-3,3′-pyrrolidine]-5′-carboxylic acid [4-(2-hydroxy-ethoxy)-phenyl]-amide], for which the IC50 came out at 7 nM.
On to `COc1cc(S(=O)(=O)N2CCOCC2)ccc1NC(=O)[C@@H]1N[C@@H](CC(C)(C)C)[C@@]2(C(=O)Nc3cc(Cl)ccc32)[C@H]1c1cccc(Cl)c1F` [Example 154, chiral (2′S,3′R,4′S,5′R)-6-chloro-4′-(3-chloro-2-fluoro-phenyl)-2′-(2,2-dimethyl-propyl)-2-oxo-1,2-dihydro-spiro[indole-3,3′-pyrrolidine]-5′-carboxylic acid [2-methoxy-4-(morpholine-4-sulfonyl)-phenyl]-amide], for which the IC50 came out at 4 nM.
On to `CCOC(=O)Cc1ccc(NC(=O)[C@@H]2N[C@@H](CC(C)(C)C)[C@@]3(C(=O)Nc4cc(Cl)ccc43)[C@H]2c2cccc(Cl)c2F)cc1` (racemic) [Example 219, rac-(4-{[(2′S,3′R,4′S,5′R)-6-chloro-4′-(3-chloro-2-fluoro-phenyl)-2′-(2,2-dimethyl-propyl)-2-oxo-1,2-dihydro-spiro[indole-3,3′-pyrrolidine]-5′-carbonyl]amino}-phenyl)-acetic acid ethyl ester], for which the IC50 was found to be 13 nM.
As for `CC(=O)OCC(C)(C)C[C@@H]1N[C@@H](C(=O)Nc2ccc(C#N)cc2)[C@H](c2cccc(Cl)c2F)[C@]12C(=O)Nc1cc(Cl)ccc12` (racemic) [Example 104, acetic acid rac-3-[(2′S,3′R,4′S,5′R)-6-chloro-4′-(3-chloro-2-fluoro-phenyl)-5′-(4-cyano-phenylcarbamoyl)-2-oxo-1,2-dihydro-spiro[indole-3,3′-pyrrolidin]-2′-yl]-2,2-dimethyl-propyl ester], the IC50 was found to be 12 nM.
Next, `COc1cc(C#N)ccc1NC(=O)[C@@H]1N[C@@H](CC(C)(C)C)[C@@]2(C(=O)Nc3cc(Cl)cc(F)c32)[C@H]1c1cccc(Cl)c1F` (racemic) [Example 75, rac-(2′S,3′R,4′S,5′R)-6-chloro-4′-(3-chloro-2-fluoro-phenyl)-2′-(2,2-dimethyl-propyl)-4-fluoro-2-oxo-1,2-dihydro-spiro[indole-3,3′-pyrrolidine]-5′-carboxylic acid (4-cyano-2-methoxy-phenyl)-amide]: 20 nM.
The figure for `CC(C)(C)C[C@@H]1N[C@@H](C(=O)Nc2nc(C(=O)O)cs2)[C@H](c2cccc(Cl)c2F)[C@]12C(=O)Nc1cc(Cl)ccc12` (racemic) [Example 197, rac-2-{[(2′S,3′R,4′S,5′R)-6-chloro-4′-(3-chloro-2-fluoro-phenyl)-2′-(2,2-dimethyl-propyl)-2-oxo-1,2-dihydro-spiro[indole-3,3′-pyrrolidine]-5′-carbonyl]amino}-thiazole-4-carboxylic acid] is 51 nM; for `CC(C)(C)C[C@@H]1N[C@@H](C(=O)Nc2ccc(C(=O)O)cc2)[C@H](c2cccc(Cl)c2F)[C@]12C(=O)Nc1cc(Cl)ccc12` (racemic) [Example 6, rac-4-{[(2′S,3′R,4′S,5′R)-6-chloro-4′-(3-chloro-2-fluoro-phenyl)-2′-(2,2-dimethyl-propyl)-2-oxo-1,2-dihydro-spiro[indole-3,3′-pyrrolidine]-5′-carbonyl]amino}-benzoic acid] it is 11 nM; for `COc1cc(N(C)C)ccc1NC(=O)[C@@H]1N[C@@H](CC(C)(C)C)[C@@]2(C(=O)Nc3cc(Cl)ccc32)[C@H]1c1cccc(Cl)c1F` (racemic) [Example 164, rac-(2′S,3′R,4′S,5′R)-6-chloro-4′-(3-chloro-2-fluoro-phenyl)-2′-(2,2-dimethyl-propyl)-2-oxo-1,2-dihydro-spiro[indole-3,3′-pyrrolidine]-5′-carboxylic acid (4-dimethylamino-2-methoxy-phenyl)-amide] it is 18 nM.
Take `CC(C)(C)C[C@@H]1N[C@@H](C(=O)Nc2ccc(S(C)(=O)=O)cc2)[C@H](c2cccc(Cl)c2F)[C@]12C(=O)Nc1cc(Cl)ccc12` (racemic) [Example 10, rac-(2′S,3′R,4′S,5′R)-6-chloro-4′-(3-chloro-2-fluoro-phenyl)-2′-(2,2-dimethyl-propyl)-2-oxo-1,2-dihydro-spiro[indole-3,3′-pyrrolidine]-5′-carboxylic acid (4-methanesulfonyl-phenyl)-amide]: the IC50 was found to be 13 nM.
For `CC(C)(C)C[C@@H]1N[C@@H](C(=O)Nc2ccn(CCO)c(=O)c2)[C@H](c2cccc(Cl)c2F)[C@]12C(=O)Nc1cc(Cl)ccc12` (racemic) [Example 30], the IC50 was found to be 14 nM.
As for `CCOc1cc(C(N)=O)ccc1NC(=O)[C@@H]1N[C@@H](CC(C)(C)C)[C@@]2(C(=O)Nc3cc(Cl)ccc32)[C@H]1c1cccc(Cl)c1F` (racemic) [Example 131, rac-(2′S,3′R,4′S,5′R)-6-chloro-4′-(3-chloro-2-fluoro-phenyl)-2′-(2,2-dimethyl-propyl)-2-oxo-1,2-dihydro-spiro[indole-3,3′-pyrrolidine]-5′-carboxylic acid (4-carbamoyl-2-ethoxy-phenyl)-amide], the IC50 came to 14 nM.
Consider `COc1cc(C(N)=O)ccc1NC(=O)[C@@H]1N[C@@H](CC(C)(C)C)[C@@]2(C(=O)Nc3cc(Cl)ccc32)[C@H]1c1cccc(Br)c1F` (racemic) [Example 117, rac-(2′S,3′R,4′S,5′R)-4′-(3-bromo-2-fluoro-phenyl)-6-chloro-2′-(2,2-dimethyl-propyl)-2-oxo-1,2-dihydro-spiro[indole-3,3′-pyrrolidine]-5′-carboxylic acid (4-carbamoyl-2-methoxy-phenyl)-amide], for which the IC50 was 7 nM.
On to `CCOc1cc(C(=O)OC)ccc1NC(=O)[C@@H]1N[C@@H](CC(C)(C)C)[C@@]2(C(=O)Nc3cc(Cl)ccc32)[C@H]1c1cccc(Cl)c1F` (racemic) [Example 129, rac-4-{[(2′S,3′R,4′S,5′R)-6-chloro-4′-(3-chloro-2-fluoro-phenyl)-2′-(2,2-dimethyl-propyl)-2-oxo-1,2-dihydro-spiro[indole-3,3′-pyrrolidine]-5′-carbonyl]-amino}-3-ethoxy-benzoic acid methyl ester], for which the 50% inhibitory concentration (IC50) was determined as 10 nM.
For `COc1cc(-n2cnnn2)ccc1NC(=O)[C@@H]1N[C@@H](CC(C)(C)C)[C@@]2(C(=O)Nc3cc(Cl)ccc32)[C@H]1c1cccc(Cl)c1F` (racemic) [Example 153, rac-(2′S,3′R,4′S,5′R)-6-chloro-4′-(3-chloro-2-fluoro-phenyl)-2′-(2,2-dimethyl-propyl)-2-oxo-1,2-dihydro-spiro[indole-3,3′-pyrrolidine]-5′-carboxylic acid (2-methoxy-4-tetrazol-1-yl-phenyl)-amide], the IC50 amounted to 8 nM.
For `CC(C)(C)C[C@@H]1N[C@@H](C(=O)Nc2ccc(C(N)=O)cc2)[C@H](c2cccc(Cl)c2F)[C@]12C(=O)Nc1cc(Cl)c(F)cc12` [Example 50, chiral (2′S,3′R,4′S,5′S)-6-chloro-4′-(3-chloro-2-fluoro-phenyl)-2′-(2,2-dimethyl-propyl)-5-fluoro-2-oxo-1,2-dihydro-spiro[indole-3,3′-pyrrolidine]-5′-carboxylic acid (4-carbamoyl-phenyl)-amide], the IC50 worked out at 6 nM.
Next, `COc1cc(N2CCOCC2)ccc1NC(=O)[C@@H]1N[C@@H](CC(C)(C)C)[C@@]2(C(=O)Nc3cc(Cl)ccc32)[C@H]1c1cccc(Cl)c1F` (racemic) [Example 143, rac-(2′S,3′R,4′S,5′R)-6-chloro-4′-(3-chloro-2-fluoro-phenyl)-2′-(2,2-dimethyl-propyl)-2-oxo-1,2-dihydro-spiro[indole-3,3′-pyrrolidine]-5′-carboxylic acid (2-methoxy-4-morpholin-4-yl-phenyl)-amide]: 15 nM; `Cc1ccc(NC(=O)[C@@H]2N[C@@H](CC(C)(C)C)[C@@]3(C(=O)Nc4cc(Cl)ccc43)[C@H]2c2cccc(Cl)c2F)cc1` (racemic) [Example 36, rac-(2′S,3′R,4′S,5′R)-6-chloro-4′-(3-chloro-2-fluoro-phenyl)-2′-(2,2-dimethyl-propyl)-2-oxo-1,2-dihydro-spiro[indole-3,3′-pyrrolidine]-5′-carboxylic acid p-tolylamide]: 18 nM; `CC(C)(C)C[C@@H]1N[C@@H](C(=O)Nc2ccc(C(N)=O)cc2)[C@H](c2cccc(Cl)c2F)[C@]12C(=O)Nc1c2ccc(Cl)c1F` (racemic) [Example 176, rac-(2′S,3′R,4′S,5′R)-6-chloro-4′-(3-chloro-2-fluoro-phenyl)-2′-(2,2-dimethyl-propyl)-7-fluoro-2-oxo-1,2-dihydro-spiro[indole-3,3′-pyrrolidine]-5′-carboxylic acid (4-carbamoyl-phenyl)-amide]: 18 nM.
With `CC(C)(C)C[C@@H]1N[C@@H](C(=O)Nc2nc(C(N)=O)cs2)[C@H](c2cccc(Cl)c2F)[C@]12C(=O)Nc1cc(Cl)ccc12` (racemic) [Example 198, rac-(2′S,3′R,4′S,5′R)-6-chloro-4′-(3-chloro-2-fluoro-phenyl)-2′-(2,2-dimethyl-propyl)-2-oxo-1,2-dihydro-spiro[indole-3,3′-pyrrolidine]-5′-carboxylic acid (4-carbamoyl-thiazol-2-yl)-amide], the 50% inhibitory concentration (IC50) was 12 nM.
